Reference: patent publication US9034299B2, “ATF4 inhibitors and their use for neural protection, repair, regeneration, and plasticity” (priority 2007, dated 2015)

Columns and labels:
Assay type in all cases: cell-based, mouse
[1] = system: ATF4; assay: ATF4 immunoblot of nuclear extracts from cultured cortical neurons; conditions: 10 mM HCA, 1 μg/ml arginase or 1 μM thapsigargin, versus vehicle control
Method: (§1) FIG. 1. Amino acid depletion and thapsigargin treatment induce ATF4 and protect embryonic cortical neurons from oxidative stress-induced cell death. (A) Cortical neuronal cultures (1 d in vitro) were treated with a vehicle control (shown as C), 10 mM of the glutamate analogue HCA, 1 μg/ml arginase, 1 μM thapsigargin, 1 μg/ml arginase and 10 mM HCA, or 10 mM HCA and 1 μM thapsigargin. 24 h later, cell viability was determined using the MTT assay. The graph depicts mean (compared with control)±SD calculated from three separate experiments for each group (n=25). *, P<0.05 from HCA-treated cultures by the Kruskal-Wallis test followed by Dunn's multiple comparisons test. (B) Live/dead assay of cortical neuronal cultures (2 d in vitro). Live cells were detected by uptake and trapping of calcein-AM (green fluorescence). […] Bar, 50 μm. […] Cells were harvested at the indicated time points, and nuclear extracts were separated using gel electrophoresis and immunodetected using an antibody against ATF4. YY1 was monitored as a loading control. The immunoblot is a representative example of three experiments.

[2] = system: reduced glutathione (GSH) in cortical neurons; assay: Reduced glutathione (GSH) in cortical neurons by HPLC electrochemical detection; conditions: 10 mM HCA or 200 μM BSO, time course; for glutathione concentration, ATF4+/+ neurons: ATF4+/+ cortical neurons; for glutathione concentration, ATF4−/− neurons: ATF4−/− cortical neurons
Method: FIG. 5. ATF4 has a negative impact on the neuronal glutathione metabolism. (A) ATF4^+/+ (♦) and ATF4^−/− (▴) cortical neurons were treated with 10 mM HCA. At the indicated time points, cells were trypsinized, washed, and pelleted. Reduced glutathione (GSH) was determined in the cell pellets using HPLC electrochemical detection. Data are from three separate cultures, and each data point was measured in duplicate. Graph depicts mean±SD. (B) Schematic overview over cysteine uptake and glutathione synthesis and their inhibition. (C) ATF4^+/+ and ATF4^−/− cortical neurons were treated with a vehicle control (shown as C) or 200 μM BSO. 24 h later, cell viability was determined using the MTT assay. The graph depicts mean (compared with control)±SD calculated from five separate experiments for each group (n=46 ATF4^+/+ and 58 ATF4^−/−). *, P<0.05 from untreated ATF4^+/+ cultures by the Kruskal-Wallis test followed by Dunn's multiple comparisons test. The difference between treated and untreated ATF4^−/− neurons was not significant (n.s.). (D) Live/dead assay displaying untreated and BSO-treated ATF4^+/+ and ATF4^−/− neurons. Bar, 50 μm. […] Cytoplasmic extracts were separated using gel electrophoresis and immunodetected using an antibody against γGCS. Total eIF2α was monitored as a loading control. (F) ATF4^+/+ (♦) and ATF4^−/− (▪) cortical neurons were treated with 200 μM BSO. […] GSH was determined in the cell pellets using HPLC electrochemical detection. Data are from three separate cultures, and each data point was measured in duplicate. […] GSH was determined in the cell pellets using HPLC electrochemical detection. The graph depicts mean±SD calculated from three separate experiments for each group, and each data point was measured in duplicate. […] The graph depicts mean (compared with control) ±SD calculated from five separate experiments for each group (n=29). *, P<0.05 from untreated neurons overexpressing ATF4WT by the Kruskal-Wallis test followed by Dunn's multiple comparisons test. […]
Concentrations of reduced glutathione were measured using HPLC (PerkinElmer) equipped with an eight-channel coulometric array detector (ESA, Inc.). […] Glutathione concentrations of supernatant fractions were determined by injecting 5-μl aliquots onto an Ultrasphere 5 u, 4.6×250 mm, C18 column (Beckman Coulter), and eluting with a mobile phase of 50 mM NaH2PO4, 0.05 mM octane sulfonic acid, 1.5% acetonitrile (pH 2.62) at a flow rate of 1 ml/min. Peak areas were analyzed using software from ESA, Inc. Intracellular generation of ROS was determined by DCF. Cortical neurons were seeded in 96-well fluorescence plates. […] Cells were washed with HBSS and read on a plate reader (Fluorometer; MDS Analytical Technologies) at 485-nm excitation and 530-nm emission wavelengths.

[3] = system: TRB3 mRNA; assay: Real-time PCR of TRB3 mRNA expression in cortical neurons; conditions: 10 mM HCA; ATF4-dependent (ATF4+/+ versus ATF4−/− neurons)
[4] = system: embryonic cortical neurons; assay: Cell viability of primary cortical neurons (MTT assay, live/dead assay)
Method: as §1
FIG. 5. ATF4 has a negative impact on the neuronal glutathione metabolism. (A) ATF4^+/+ (♦) and ATF4^−/− (▴) cortical neurons were treated with 10 mM HCA. At the indicated time points, cells were trypsinized, washed, and pelleted. Reduced glutathione (GSH) was determined in the cell pellets using HPLC electrochemical detection. Data are from three separate cultures, and each data point was measured in duplicate. Graph depicts mean±SD. (B) Schematic overview over cysteine uptake and glutathione synthesis and their inhibition. (C) ATF4^+/+ and ATF4^−/− cortical neurons were treated with a vehicle control (shown as C) or 200 μM BSO. 24 h later, cell viability was determined using the MTT assay. The graph depicts mean (compared with control)±SD calculated from five separate experiments for each group (n=46 ATF4^+/+ and 58 ATF4^−/−). *, P<0.05 from untreated ATF4^+/+ cultures by the Kruskal-Wallis test followed by Dunn's multiple comparisons test. The difference between treated and untreated ATF4^−/− neurons was not significant (n.s.). (D) Live/dead assay displaying untreated and BSO-treated ATF4^+/+ and ATF4^−/− neurons. Bar, 50 μm. […] Cytoplasmic extracts were separated using gel electrophoresis and immunodetected using an antibody against γGCS. Total eIF2α was monitored as a loading control. (F) ATF4^+/+ (♦) and ATF4^−/− (▪) cortical neurons were treated with 200 μM BSO. At the indicated time points, cells were trypsinized, washed, and pelleted. GSH was determined in the cell pellets using HPLC electrochemical detection. Data are from three separate cultures, and each data point was measured in duplicate. Graph depicts mean±SD. (G) ATF4^+/+ cortical neurons were infected with GFP (♦), ATF4WT (▪), and ATF4ΔRK (▴) adenoviruses at an MOI of 100. At the indicated time points after infection, cells were trypsinized, washed, and pelleted. GSH was determined in the cell pellets using HPLC electrochemical detection. The graph depicts mean±SD calculated from three separate experiments for each group, and each data point was measured in duplicate. The value obtained from noninfected neurons was arbitrarily defined as 100%. […] The graph depicts mean (compared with control) ±SD calculated from five separate experiments for each group (n=29). *, P<0.05 from untreated neurons overexpressing ATF4WT by the Kruskal-Wallis test followed by Dunn's multiple comparisons test. […]

Row | SMILES | ATF4 protein expression/accumulation [1] | glutathione concentration, ATF4+/+ neurons [2] | glutathione concentration, ATF4−/− neurons [2] | also measured
1 | NC(CCS(=O)(=O)O)C(=O)O (stereo not drawn) [HCA, homocysteate] | increases the expression of ATF4 | progressive loss of glutathione | markedly slower decline in glutathione concentration | TRB3 mRNA expression [3]: induced
2 | COc1ccc(O)c(C(C)(C)C)c1 [BHA, butylated hydroxyanisol] |  |  |  | neuronal viability in neurons overexpressing ATF4WT ([4]; ATF4+/+ cortical neurons infected with ATF4WT adenovirus, MOI 100, 10 μM BHA): significantly increased neuronal viability; protection against additional HCA toxicity in neurons overexpressing ATF4WT ([4]; ATF4WT adenovirus, MOI 100, 10 μM BHA plus 10 mM HCA): protected against the additional toxic effect of HCA treatment
3 | C/C=C(/C)C(=O)O[C@H]1C(C)=C2[C@H]([C@@H]1OC(=O)CCCCCCC)[C@@](C)(OC(C)=O)C[C@H](OC(=O)CCC)[C@@]1(O)[C@H]2OC(=O)[C@@]1(C)O [thapsigargin] | accumulation of ATF4 protein |  |  | protection from oxidative stress-induced neuronal cell death ([4]; 10 mM HCA, 24 h, 1 μg/ml arginase or 1 μM thapsigargin, MTT and live/dead assay): nearly complete protection from neuronal cell death
4 | CCCCS(=N)(=O)CCC(N)C(=O)O (stereo not drawn) [BSO, buthionine sulfoximine] |  | decline in the concentration of glutathione | distinctly slower reduction of glutathione | cell viability, ATF4+/+ neurons ([4]; 200 μM BSO, 24 h, ATF4+/+ cortical neurons): resulted in cell death; cell viability, ATF4−/− neurons ([4]; 200 μM BSO, 24 h, ATF4−/− cortical neurons): essentially resistant
